Eight compounds from patent US20260158177A1, “COMPOUNDS SPECIFIC TO GRANZYME B AND USES THEREOF” (CYTOSITE BIOPHARMA INC., priority 2021, published 2026) can be followed below.

Structures are written as SMILES. Numbered stars: 1 amine (or outer) side, 2 acyl side, 3 side chain; on linkers, the order of the positions; unused ones are H or OH. Square brackets hold non-standard residues; d marks the D form. Peptide text beside a SMILES is read from it. * marks the point of attachment. NOTA(AlF) = O=C1CN2CCN(CCN(CC(=O)*)CC2)CC(=O)[O][Al]([F])[O]1; Haic = O=C1[C@@H](N[*:1])CCc2cccc3c2N1[C@H](C(=O)[*:2])C3; NH(5-HO-2-oxo-oxolan-4-yl) = O=C1CC(N*)C(O)O1; X1 = O=C(CN1CCN([*:1])CC1)[*:2]

The target in this assay is T1, human granzyme B (Homo sapiens, UniProt P10144).
T1 construct: from tissue; host or cells: human lymphocytes
T1 sequence (P10144 21-247): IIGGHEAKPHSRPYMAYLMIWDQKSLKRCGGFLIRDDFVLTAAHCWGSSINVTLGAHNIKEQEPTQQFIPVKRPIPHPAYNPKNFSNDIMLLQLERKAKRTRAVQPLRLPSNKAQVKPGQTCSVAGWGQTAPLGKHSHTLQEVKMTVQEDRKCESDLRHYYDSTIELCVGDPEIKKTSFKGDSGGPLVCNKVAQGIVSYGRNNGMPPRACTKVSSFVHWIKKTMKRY
Put plainly: Competitive binding assay of human granzyme B with Compound ^18F-21-Al radioligand. To be noted: competition with 20 nM Compound ^18F-21-Al, human lymphocyte GZB, 37° C., 90 minutes. The protocol: Purpose: To perform competitive binding assays with human granzyme B using Compound ^18F-21-Al to determine IC50 values of potential granzyme B ligands
Initial Plate Preparation (including total binding and non-specific binding): • 1. 78 μL of reaction buffer, as described above, is added to each well in a 96 well plate • 2. For wells used to examine total binding (defined as the binding of the radioligand in the absence of competitors), 2 μL of DMSO is added to give 1% final DMSO concentration for all wells • 3. For wells used to examine non-specific binding (defined as the binding of the radioligand in the presence of 10 μM 21), 2 μL of 1 mM Compound 21 is added to give a final concentration of 10 μM
• 1. Granzyme B (GZB, human lymphocyte) is diluted to 0.5 μg/mL using reaction buffer as described above • 2. 100 μL of 0.5 μg/mL diluted human GzB is added to each well, giving 50 ng per well and a final concentration of 0.25 μg/mL
• 1. DMSO or water is added to the respective compound vial to make 1 mM compound stock solution • 2. 1 mM compound stock solution is serially diluted by ½ log (3.16 fold) by adding 18.5 μL of compound stock to 40 μL of DMSO, mixing by pipetting up and down, and transferring 18.5 μL of the mixture to 40 μL of DMSO. This process is repeated to create 10 dilution points for test compounds. • 3. For wells used to examine ligand binding competition, 2 μL of each dilution is dispensed into the 96 well plates prepared as described above, giving a further dilution of 1/100.
• 1. 200 nM of Compound ^18F-21-Al (10× radioligand stock) is prepared in reaction buffer, aiming for approximately 2 million CPM per 20 μL of solution (input). • 2. 20 μL of radioligand stock is dispensed into each well to give a final concentration per well of 20 nM.
• 1. All 96 wells should have a final volume of 200 μL, and the assay plates are incubated at 37° C. for 90 minutes. • 2. All samples from the assay plates are transferred to MultiScreenHTS FB plates that have been presoaked in PBS buffer, pH 7.4, and filtered using a vacuum manifold. An additional 150 μL of PBS buffer is added to each well in the assay plates and combined to ensure transfer of any remaining samples • 3. MultiScreenHTS FB plates are washed 3× with 150 μL of PBS buffer. • 4. All filters are separated and transferred to individual tubes using Multiscreen punch tips and the Millipore multiple punch apparatus • 5. The sample set is analyzed using the Wizard 2480 automatic gamma-counter [Perkin Elmer] through a [^18F]-specific profile. Values are reported as decay-corrected counts per minute (CPM). • 6. Resulting CPM values are normalized and converted to % inhibition by the following equation:
[formula] • *the total bound fraction is typically less than 10% of the added radioligand under such assay conditions. • Resulting % inhibition values were plotted using the software GraphPad Prism 8.4.3 using the One site—Fit log IC50 equation to determine the IC50 value for each ligand.
[formula] • Y=% Inhibition • X=Log concentration of the cold competing ligand (M) • A=minimum Y (0%) • B=maximum Y (100%) • Log IC50=Log concentration of cold competing ligand (M) at half-way between minimum and maximum Y
In general, IC50 refers to the concentration that gives 50% inhibition. Regarding `CC[C@H](C)[C@H](NC(=O)CCNC(=O)CCNC(=O)[C@@H](CCC(=O)O)NC(=O)CN1CCC(CN2CCN3CCN(CC2)CC(=O)[O][Al]([F])[O]C(=O)C3)CC1)C(=O)N[C@H]1CCc2cccc3c2N(C1=O)[C@H](C(=O)NC1CC(=O)OC1O)C3` (stereo partly drawn) [Compound 1-Al, 2,2′-(7-((1-((4R,15S,16S)-4-(2-carboxyethyl)-15-(((3S,6S)-6-((2-hydroxy-5-oxotetrahydrofuran-3-yl)carbamoyl)-4-oxo-1,2,3,4,6,7-hexahydroazepino[3,2,1-hi]indol-3-yl)carbamoyl)-16-methyl-2,5,9,13-tetraoxo-3,6,10,14-tetraazaoctadecyl)piperidin-4-yl)methyl)-1,4,7-triazonane-1,4-diyl)diacetic acid, aluminum fluoride complex (1:1)], the IC50 came to 5.7 nM.

With `CC[C@H](C)[C@H](NC(=O)CCNC(=O)CCNC(=O)[C@@H](CCC(=O)O)NC(=O)[C@@H](CCC(=O)O)NC(=O)CN1CCN(C(=O)CN2CCN3CCN(CC2)CC(=O)[O][Al]([F])[O]C(=O)C3)CC1)C(=O)N[C@H]1CCc2cccc3c2N(C1=O)[C@H](C(=O)NC1CC(=O)OC1O)C3` (stereo partly drawn) [Compound 16-Al, 2,2′-(7-(2-(4-((4R,7R,18S,19S)-4,7-bis(2-carboxyethyl)-18-(((3S,6S)-6-((2-hydroxy-5-oxotetrahydrofuran-3-yl)carbamoyl)-4-oxo-1,2,3,4,6,7-hexahydroazepino[3,2,1-hi]indol-3-yl)carbamoyl)-19-methyl-2,5,8,12,16-pentaoxo-3,6,9,13,17-pentaazahenicosyl)piperazin-1-yl)-2-oxoethyl)-1,4,7-triazonane-1,4-diyl)diacetic acid, aluminum fluoride complex (1:1)], the 50% inhibitory concentration (IC50) was 4.2 nM.

Regarding `CC[C@H](C)[C@H](NC(=O)COCCNC(=O)[C@@H](CCC(=O)O)NC(=O)[C@@H](CCC(=O)O)NC(=O)CN1CCC(CN2CCN3CCN(CC2)CC(=O)[O][Al]([F])[O]C(=O)C3)CC1)C(=O)N[C@H]1CCc2cccc3c2N(C1=O)[C@H](C(=O)NC1CC(=O)OC1O)C3` (stereo partly drawn) [Compound 4-Al, 2,2′-(7-((1-((4R,7R,16S,17S)-4,7-bis(2-carboxyethyl)-16-(((3S,6S)-6-((2-hydroxy-5-oxotetrahydrofuran-3-yl)carbamoyl)-4-oxo-1,2,3,4,6,7-hexahydroazepino[3,2,1-hi]indol-3-yl)carbamoyl)-17-methyl-2,5,8,14-tetraoxo-12-oxa-3,6,9,15-tetraazanonadecyl)piperidin-4-yl)methyl)-1,4,7-triazonane-1,4-diyl)diacetic acid, aluminum fluoride complex (1:1)], the concentration for half-maximal inhibition (IC50) came out at 2.8 nM.

Regarding `CC[C@H](C)[C@H](NC(=O)CCNC(=O)CCNC(=O)CN(CC(=O)O)C(=O)CN1CCC(CN2CCN3CCN(CC2)CC(=O)[O][Al]([F])[O]C(=O)C3)CC1)C(=O)N[C@H]1CCc2cccc3c2N(C1=O)[C@H](C(=O)NC1CC(=O)OC1O)C3` (stereo partly drawn) [Compound 5-Al, 2,2′-(7-((1-((15S,16S)-3-(carboxymethyl)-15-(((3S,6S)-6-((2-hydroxy-5-oxotetrahydrofuran-3-yl)carbamoyl)-4-oxo-1,2,3,4,6,7-hexahydroazepino[3,2,1-hi]indol-3-yl)carbamoyl)-16-methyl-2,5,9,13-tetraoxo-3,6,10,14-tetraazaoctadecyl)piperidin-4-yl)methyl)-1,4,7-triazonane-1,4-diyl)diacetic acid, aluminum fluoride complex (1:1)], the 50% inhibitory concentration (IC50) is 5.7 nM.

Take `CC[C@H](C)[C@H](NC(=O)CC[C@H](NC(=O)CN1CCN(C(=O)CN2CCN3CCN(CC2)CC(=O)[O][Al]([F])[O]C(=O)C3)CC1)C(=O)O)C(=O)N[C@H]1CCc2cccc3c2N(C1=O)[C@H](C(=O)NC1CC(=O)OC1O)C3` (stereo partly drawn) [Compound 17-Al, 2,2′-(7-(2-(4-(2-(((1S)-1-carboxy-4-(((2S,3S)-1-(((3S,6S)-6-((2-hydroxy-5-oxotetrahydrofuran-3-yl)carbamoyl)-4-oxo-1,2,3,4,6,7-hexahydroazepino[3,2,1-hi]indol-3-yl)amino)-3-methyl-1-oxopentan-2-yl)amino)-4-oxobutyl)amino)-2-oxoethyl)piperazin-1-yl)-2-oxoethyl)-1,4,7-triazonane-1,4-diyl)diacetic acid, aluminum fluoride complex (1:1)]: the half-maximal inhibitory concentration (IC50) amounted to 2.7 nM.

For the compound `CC[C@H](C)[C@H](NC(=O)COCCOCCNC(=O)COCCOCCNC(=O)[C@@H](CCC(=O)O)NC(=O)CN1CCN(C(=O)CN2CCN3CCN(CC2)CC(=O)[O][Al]([F])[O]C(=O)C3)CC1)C(=O)N[C@H]1CCc2cccc3c2N(C1=O)[C@H](C(=O)NC1CC(=O)OC1O)C3` (stereo partly drawn) [Compound 11-Al, 2,2′-(7-(2-(4-((4R,25S,26S)-4-(2-carboxyethyl)-25-(((3S,6S)-6-((2-hydroxy-5-oxotetrahydrofuran-3-yl)carbamoyl)-4-oxo-1,2,3,4,6,7-hexahydroazepino[3,2,1-hi]indol-3-yl)carbamoyl)-26-methyl-2,5,14,23-tetraoxo-9,12,18,21-tetraoxa-3,6,15,24-tetraazaoctacosyl)piperazin-1-yl)-2-oxoethyl)-1,4,7-triazonane-1,4-diyl)diacetic acid, aluminum fluoride complex (1:1)], the concentration for half-maximal inhibition (IC50) turned out to be 2.4 nM.

`CC[C@H](C)[C@H](NC(=O)CNC(=O)CNC(=O)[C@H](CCC(=O)O)NC(=O)CN1CCN(C(=O)CN2CCN3CCN(CC2)CC(=O)[O][Al]([F])[O]C(=O)C3)CC1)C(=O)N[C@H]1CCc2cccc3c2N(C1=O)[C@H](C(=O)NC1CC(=O)OC1O)C3` (stereo partly drawn) [Compound 8-Al, 2,2′-(7-(2-(4-((4S,13S,14S)-4-(2-carboxyethyl)-13-(((3S,6S)-6-((2-hydroxy-5-oxotetrahydrofuran-3-yl)carbamoyl)-4-oxo-1,2,3,4,6,7-hexahydroazepino[3,2,1-hi]indol-3-yl)carbamoyl)-14-methyl-2,5,8,11-tetraoxo-3,6,9,12-tetraazahexadecyl)piperazin-1-yl)-2-oxoethyl)-1,4,7-triazonane-1,4-diyl)diacetic acid, aluminum fluoride complex (1:1)] ({NOTA(AlF)}-[X1]EGGI[Haic]-{NH(5-HO-2-oxo-oxolan-4-yl)}): the IC50 is 6.5 nM.

For `CC[C@H](C)[C@H](NC(=O)CC[C@@H](NC(=O)CN1CCN(C(=O)CN2CCN3CCN(CC2)CC(=O)[O][Al]([F])[O]C(=O)C3)CC1)C(=O)O)C(=O)N[C@H]1CCc2cccc3c2N(C1=O)[C@H](C(=O)NC1CC(=O)OC1O)C3` (stereo partly drawn) [Compound 14-Al, 2,2′-(7-(2-(4-(2-(((1R)-1-carboxy-4-(((2S,3S)-1-(((3S,6S)-6-((2-hydroxy-5-oxotetrahydrofuran-3-yl)carbamoyl)-4-oxo-1,2,3,4,6,7-hexahydroazepino[3,2,1-hi]indol-3-yl)amino)-3-methyl-1-oxopentan-2-yl)amino)-4-oxobutyl)amino)-2-oxoethyl)piperazin-1-yl)-2-oxoethyl)-1,4,7-triazonane-1,4-diyl)diacetic acid, aluminum fluoride complex (1:1)], the concentration for half-maximal inhibition (IC50) came to 2.7 nM.
